Tests used:
EpCAM [1] = test: Immunofluorescence staining of paraffin embedded xenograft tumour sections; set-up: species or system human; key to Quantification of anti-EpCAM staining by immunofluorescence: ‘−’ no staining; ‘+’ faint incomplete staining in >10% of cells; ‘++’ moderate complete membrance staining; ‘+++’ strong complete membrance staining; settings: for Quantification of anti-EpCAM staining by immunofluorescence: U118MG xenograft
Description: (§1) A: Immunofluorescence staining of breast cancer (T47D, MCF7 and MDA-MB-231), colon cancer (HT-29) and glioblastoma (U118MG) xenograft tumours by EpCAM aptamers, DT3 and 23, control aptamer and the anti-EpCAM antibody, 323/A3 (Blue: nuclei; Red: EpCAM positive staining). B: Immunohistochemistry was performed with the anti-EpCAM antibody BerEP4, and all tumours were evaluated by haematoxylin and eosin staining for morphological confirmation. Aptamer staining was performed for 15 min at 37° C., while 323/A3 staining was performed at 4° C. overnight and BerEP4 was performed at room temperature for 20 min. All fluorescent images were taken at 60×, while light microscopy images were taken at 20×. Images are representative of at least three separate experiments. Scale bar: 50 μm.
(§2) The cell lines of human origin used in this study were purchased from American type Culture Collection. They were glioblastoma U118-MG; breast carcinoma MCF-7, MDA-MB-231 and T47D; and colorectal adenocarcinoma HT-29. Cells were grown and maintained in culture with Dulbecco's Modified Eagle medium (DMEM) (Invitrogen, Victoria, Australia) supplemented with 10% fetal calf serum (MCF-7, T47D, HT-29, and U118-MG), or Roswell Park Memorial Institute 1640 (RPMI 1640) (Invitrogen) with 10% fetal calf serum (MDA-MB-231). Cells were maintained at 37 ^CC in a humidified atmosphere containing 5% CO2. For xenograft studies, single cell suspensions were harvested by trypsinisation, washed with PBS and resuspended in 0.1 mL of PBS for implantation in BALB/c-Foxn1 ^nu female mice. Once tumours had reached approximately […], they were excised and fixed in 10% neutral buffered formalin prior to processing and embedding. All animal procedures were approved by Deakin University Animal Welfare Committee, and in accordance with the Australian Code of Practice for the Care and Use of Animals for Scientific Purposes.
(§3) Sections from each of the xenograft tumours were cut at 4 μm onto polylysine coated slides prior to deparaffinisation with Histoclear and rehydration through graded ethanol. Heat induced antigen retrieval was performed in a microwave oven using Tris-EDTA buffer (10 mM Tris, 1 mM EDTA, 0.05% Tween 20, pH 9.0) for 20 min and the slides were allowed to cool prior to blocking with 0.1 mg/mL tRNA, 0.1 mg/mL salmon sperm DNA and 1 mg/mL bovine serum albumin (BSA) in phosphate buffered saline (PBS) for 20 min. Following the blocking step, slides were washed in PBS containing 0.1% Tween 20 twice for 2 min prior to incubation with either aptamer or antibody. Aptamers were prepared as previously described (Shigdar S et al, supra). Briefly, aptamers were heated to 85° C. for 5 min, allowed to cool to room temperature for 10 min and then heated at 37° C. for 15 min. Slides were incubated with aptamers at 100 nM concentration in a solution of PBS containing 5 mM MgCl2, 0.1 mg/mL tRNA, 1 mg/mL BSA, 10% dextran sulphate and 500 μg/mL heparin for 15 min at 37° C. The slides were then washed three times for 5 min each prior to incubation with Bisbenzimide Hoechst 33342 (3 μg/mL) for 10 min. Slides were then mounted using VECTASHIELD and coverslipped prior to visualisation using a Fluoview FV10i laser scanning confocal microscope. All images used for direct comparison were taken with identical exposure parameters and are presented without any digital contrast alteration or background subtraction. Antibody staining was performed using the anti-EpCAM antibody 323/A3 (ab8601, Abcam). […]

EpCAM [2] = molecular target: T1, EpCAM (Homo sapiens, UniProt P16422); test: as above; set-up: from tissue; host or cells: xenograft tumours of T47D, MCF7, MDA-MB-231, HT-29 and U118MG cells grown in BALB/c-Foxn1 nu mice, formalin-fixed and paraffin-embedded; key to Quantification of anti-EpCAM staining by immunofluorescence: ‘−’ no staining; ‘+’ faint incomplete staining in >10% of cells; ‘++’ moderate complete membrance staining; ‘+++’ strong complete membrance staining
T1 sequence (P16422 24-314): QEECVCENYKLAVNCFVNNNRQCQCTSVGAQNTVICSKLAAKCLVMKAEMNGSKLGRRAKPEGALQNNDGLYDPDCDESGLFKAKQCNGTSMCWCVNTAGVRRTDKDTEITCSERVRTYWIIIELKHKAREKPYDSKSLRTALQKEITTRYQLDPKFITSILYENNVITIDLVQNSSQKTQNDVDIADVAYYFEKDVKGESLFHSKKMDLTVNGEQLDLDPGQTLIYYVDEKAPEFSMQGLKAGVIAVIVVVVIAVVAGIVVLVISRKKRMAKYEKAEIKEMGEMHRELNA
Description: as §1, §2
as §3, with “Abcam). Slides were washed and blocked following the same protocol as previously described prior to antibody staining. The antibody was prepared at a concentration of 10 μg/mL and the slides were incubated overnight at 4° C. Slides were then washed three times for 5 min followed by incubation with a goat-anti-mouse IgG AlexaFluor 647 conjugate (Invitrogen) at a concentration of 10 μg/mL for 2 h prior to washing, staining with Bisbenzimide Hoechst 33342, and coverslipping.” for “Abcam).”

[3] = test system: HEK293T sphere that does not express EpCAM; test: Penetration of HEK293T sphere (specificity); format: cell-based, human; settings: 4 h incubation, further 24 h culture
Description: After four hour incubation with EpCAM antibody or aptamer 23 separately, the tumor spheres were washed twice with PBS and were cultured for a further 24 h followed by confocal microscopy. Panel A: fluorescence image for aptamer 23. Panel B: phase contrast for tumor sphere. Panel C: fluorescence image for anti-EpCAM antibody. Panel D: phase contrast image for tumour sphere.
To study the ability of EpCAM aptamer or antibody to penetrate tumors, the inventors used a three-dimensional in vitro tumor sphere model. […] After incubating for the indicated time, the spheres were washed twice with PBS and imaged via fluorescence confocal microscopy. A phase contrast image of the sphere was also taken for each sample. […] A retention study was performed whereby the tumour spheres were incubated with EpCAM antibody, aptamer-23 or control aptamer for 4 h, after washing with PBS twice, the tumor spheres were incubated with the culture medium for a further 24 h followed by confocal microscopy.

Row | Substance | Quantification of anti-EpCAM staining by immunofluorescence (EpCAM [1]) | staining of U118MG xenograft (in words) (EpCAM [1]; U118MG xenograft that does not express EpCAM) | staining of HT-29 xenograft sections (in words) (EpCAM [2]; HT-29 colorectal cancer xenograft) | Quantification of anti-EpCAM staining by immunofluorescence (EpCAM [2]; HT-29 xenograft) | Quantification of anti-EpCAM staining by immunofluorescence (EpCAM [2]; MCF7 xenograft) | Quantification of anti-EpCAM staining by immunofluorescence (EpCAM [2]; MDA-MB-231 xenograft) | detection of EpCAM in MDA-MB-231 xenograft tumour (in words) (EpCAM [2]; MDA-MB-231 xenograft, low EpCAM expression) | Quantification of anti-EpCAM staining by immunofluorescence (EpCAM [2]; T47D xenograft) | staining of human breast cancer xenografts (in words) (EpCAM [2]; T47D, MCF7 and MDA-MB-231 xenografts, 100 nM, 15 min, 37° C., dextran sulphate and heparin) | binding to HEK293T sphere [3]
1 | 5′-ACGUAUCCCUUUUCGCGUA-3′ (RNA aptamer, fluorescent dye conjugate used, modifications not given here, further chemistry not given here) [compound 23] | − | no staining detectable | strong positive staining | +++ | ++ | + (‘+’ faint incomplete staining in >10% of cells) | successfully detect EpCAM | +++ | highly sensitive staining | minimal binding
2 | 5′-DY647-mGCmGACUmGmGUUmACCCmGmGUCmGdT-3′ (GCGACUGGUUACCCGGUCGN; 5' DY647, 2'-O-methyl, 3' dT, further chemistry not given here) [Control] | − |  |  | − | − | − |  | − |  | 

Source: US9567586B2, “EpCAM aptamer for detection of cancer stem cells” (DEAKIN UNIVERSITY, priority 2012, dated 2017)
